Results taken from patent US20220071880A1, “METHODS FOR TREATING CUTANEOUS AGING” (Applied Therapeutics, Inc., priority 2019, published 2022).
“Also recorded” adds a separate entry of the source.

Assays:
Type in all cases: cell-based
[1] = test system: Cultured human skin cells (keratinocytes); experiment: Cytosolic reactive oxygen species by dihydroethidium (DHE) staining in H2O2-exposed cultured keratinocytes
Description: FIGS. 1A and 1B are fluorescence images of cultured human skin (keratinocytes) that were exposed to H2O2 to cause oxidative stress. The cells were analyzied for cytosolic reactive oxygen species by staining with dihydroethidium (DHE). FIG. 1A depicts the skin cell damage in the presence of H2O2 as assessed by DHE staining, and the presence of cytosolic reactive oxygen species is shown by fluorescence.
(§1) Cultured human skin cells (keratinocytes) were exposed to H2O2, which causes oxidative damage to simulate the aging process, in the presence of Compound A (at 0.18 nM concentration) or vehicle control. The cultured cells were then assessed for cytosolic reactive oxygen species via Dihydroethidium (DHE) staining (FIG. 1A and FIG. 1B) and for mitochondrial stress via Mitosox™ (a fluorgenic dye targeted to mitochondria in live cells and readily oxidized by superoxide to produce fluorescence, ThermoFisher Scientific) staining (FIG. 2A and FIG. 2B).

[2] = test system: Cultured human skin cells (keratinocytes); experiment: Mitochondrial oxidative stress by Mitosox staining in H2O2-exposed cultured keratinocytes
Protocol: FIGS. 2A and 2B are fluorescence images of cultured human skin (keratinocytes) that were exposed to H2O2 to cause oxidative stress. The cells were analyzied for mitochondrial stress by staining with Mitosox. FIG. 2A depicts the skin cell damage in the presence of H2O2 as assessed by Mitosox staining.
as §1

[3] = test system: cultured human keritinocytes; experiment: Senescence-associated beta-galactosidase (SA-βgal) expression in H2O2-exposed cultured keratinocytes, cytochemical approach; settings: human keratinocytes exposed to H2O2; Compound A at 0.18 nM vs vehicle control
Protocol: Senescence-associated beta-galactosidase (SA-βgal) is a well-known biomarker of senescent cells in culture and in vivo. Debacq-Chainiaux et al., Nature Protocols 4, 1798-1806 (2009). In additional studies the cultured human keritinocytes that were exposed to H2O2 in the presence of Compound A (at 0.18 nM concentration) or vehicle control were analyzed for expression of SA-βgal using a cytochemical approach.

[4] = human keratinocytes exposed to H2O2, Compound A at 0.18 nM vs vehicle control
[5] = same cultured human keratinocyte system, concentration not given

H2O2-induced SA-βgal expression [3]	Structure (SMILES)	H2O2-induced cytosolic reactive oxygen species formation (DHE fluorescence) [1, 4]	H2O2-induced mitochondrial oxidative stress (Mitosox fluorescence) [2, 4]	H2O2-induced cytosolic reactive oxygen species formation [1, 5]	H2O2-induced mitochondrial oxidative stress [2, 5]
inhibited H2O2-induced SA-βgal	O=C(O)Cc1nn(Cc2nc3cc(C(F)(F)F)ccc3s2)c(=O)c2nccnc12 [Compound A]	attenuated DHE fluorescence; also recorded: attenuated H2O2-induced cytosolic reactive oxygen species formation	reduced Mitisox fluorescence; also recorded: reduced mitochondrial oxidative stress	–	–
–	O=C(O)Cc1nn(Cc2nc3cc(C(F)(F)F)ccc3s2)c(=O)c2cscc12 [Compound B]	–	–	inhibited H2O2-induced cytosolic reactive oxygen species formation	inhibited H2O2-induced cytosolic reactive oxygen species formation and mitochondrial oxidative stress
